From patent publication US20110237612A1, “Thienylamino pyrimidines for use as Fungicides” (BayerCropScience AG, priority 2008, published 2011)
Read-outs that look alike come from different tables or passages of the source.

Experiments:
[1] = for logp [a]: pH 2.3; for logp [b]: pH 2.7; for logp [c]: pH 7.8
physchem = details: pH 2.3
[2] = test system: Production of Fumonisin FB1 by Fusarium Proliferatum; assay: Production of fumonisin FB1 by Fusarium proliferatum; format: cell-based; details: FB1 concentration by HPLC-MS/MS after 6 days at 20° C.
Fusarium proliferatum = assay: Growth of Fusarium proliferatum (OD620) in the fumonisin test; format: cell-based; details: OD620 at the beginning and after 6 days
[3] = logP determination by HPLC on reversed-phase columns (EEC directive 79/831 Annex V.A8); details: for logp [a] / logp [b]: acidic range; for logp [a]: pH 2.3, 0.1% aqueous phosphoric acid and acetonitrile; for logp [b] / logp [c]: LC-MS; for logp [b]: pH 2.7, 0.1% aqueous formic acid and acetonitrile; for logp [c]: neutral range, pH 7.8, 0.001 molar aqueous ammonium bicarbonate and acetonitrile
Gibberella zeae = details: in vivo

| Structure (SMILES) | logp [b] [1] | logp [c] [1] | other results |
| --- | --- | --- | --- |
| CC(C)N(C)C(=O)c1cc(Nc2ncc(Cl)c(NC3CC3)n2)cs1 [Example 8] |  |  | logp [a] [1]: 1.6[a] |
| CC(=O)c1ccc(N)s1 [1-(5-Amino-2-thienyl)ethanone] |  |  | chromatographic logP (physchem): 0.42 |
| O=C(c1cc(Nc2ncc(Cl)c(NC3CC3)n2)cs1)N1CCCC1 [Example 6, 5-Chloro-N^4-cyclopropyl-N^2-2-pyrrolidin-1-ylcarbonylthiophen-4-yl-2,4-diamine] |  |  | pI50 Fum [2]: 5.9; pI50 growth (Fusarium proliferatum): 5.6; logp [a] [3]: 1.42[a]; logP (pH 2.3) [3]: 1.40 |
| CC(C)(C)NC(=O)c1cc(Nc2ncc(Cl)c(NC3CC3)n2)cs1 [Example 20] | 2.11[b] |  |  |
| O=C(c1cc(Nc2ncc(Cl)c(NC3CC3)n2)cs1)N1CCOCC1 [Example 19] | 1.45[b] | 2.09[c]; |  |
| Brc1cnc(Nc2ccsc2)nc1NC1CC1 [Example 4] | 1.71[b] |  |  |
| Clc1cnc(Nc2ccsc2)nc1NC1CCC1 [Example 18] | 1.96[b] | 3.46[c]; |  |
| CSc1ccc(Nc2ncc(Br)c(NC3CC3)n2)s1 [Example 35] | 3.02[b] | 3.53[c]; |  |
| FC(F)(F)c1cnc(Nc2ccsc2)nc1NC1CC1 [Example 2] | 2.69[b] |  | efficacy (Gibberella zeae): ≥ 80% |
| CS(=O)(=O)c1ccc(Nc2ncc(Cl)c(NC3CC3)n2)s1 [Example 33] | 1.97[b] | 2.02[c]; |  |
| FC(F)CNc1nc(Nc2ccsc2)ncc1Cl [Example 31] | 1.88[b] | 2.72[c]; |  |
| Cc1ccc(Nc2ncc(Br)c(NC3CC3)n2)s1 [Example 44] | 2.27[b] | 3.35[c]; |  |
| CC(=O)c1cc(Nc2ncc(Cl)c(NC3CC3)n2)cs1 [Example 13] |  |  | logp [a] [1]: 1.44[a] |
| N#Cc1csc(Nc2ncc(Cl)c(NC3CC3)n2)c1 [Example 12] |  |  | logp [a] [1]: 2.55[a] |
| Clc1cnc(Nc2ccsc2)nc1NC1CC1 [Example 1] | 1.63[b] |  |  |
| O=C(c1cc(Nc2ncc(Cl)c(NC3CC3)n2)cs1)N1CCCCC1 [Example 7] |  |  | logp [a] [1]: 1.68[a] |
| N#Cc1cc(Nc2ncc(Cl)c(NC3CC3)n2)cs1 [Example 14] |  |  | logp [a] [1]: 2.23[a] |
| FC(F)CNc1nc(Nc2ccsc2)ncc1Br [Example 30] | 1.99[b] | 2.83[c]; |  |
| Cc1ccc(Nc2ncc(C(F)(F)F)c(NC3CC3)n2)s1 [Example 36] | 3.22[b] | 3.56[c]; |  |
| S=C(c1cc(Nc2ncc(Cl)c(NC3CC3)n2)cs1)N1CCCC1 [Example 39] | 2.31[b] | 3.23[c]; |  |
| CCN(CC)C(=S)c1cc(Nc2ncc(Cl)c(NC3CC3)n2)cs1 [Example 40] | 2.55[b] | 3.51[c]; |  |
| O=C(NO)c1cc(Nc2ncc(Cl)c(NC3CC3)n2)cs1 [Example 25] | 2.1[b] | 2.96[c]; |  |

| Structure (SMILES) | logp [b] [1] | logp [c] [1] | other results |
| --- | --- | --- | --- |
| CCN(CC)C(=O)c1cc(Nc2ncc(Cl)c(NC3CC3)n2)cs1 [Example 9] |  |  | pI50 Fum [2]: 6.0; pI50 growth (Fusarium proliferatum): 5.5; logp [a] [1]: 1.62[a] |
| Clc1ccc(Nc2ncc(Cl)c(NC3CC3)n2)s1 [Example 43] |  | 3.54[c]; |  |
| COC(=O)c1cc(Nc2ncc(Cl)c(NC3CC3)n2)cs1 [Example 5, 5-Chloro-N^4-cyclopropyl-N^2-2-methoxycarbonylthiophen-4-yl-2,4-diamine] |  |  | pI50 Fum [2]: 5.3; pI50 growth (Fusarium proliferatum): 4.4; logp [a] [3]: 1.68[a]; logP (pH 2.3) [3]: 1.68 |
| CC(C)Nc1nc(Nc2ccsc2)ncc1Br [Example 28] | 1.85[b] | 3.43[c]; |  |
| Clc1cnc(Nc2ccsc2)nc1Cl [Example X-1, 4,5-Dichloro-N-(3-thienyl)pyrimidin-2-amine] |  |  | chromatographic logP (physchem): 3.55 |
| FC(F)(F)CNc1nc(Nc2ccsc2)ncc1Br [Example 29] |  | 3.50[c] |  |
| CN(CC1CC1)C(=O)c1cc(Nc2ncc(Cl)c(NC3CC3)n2)cs1 [Example 38] | 2.08[b] | 2.86[c]; |  |
| C=CCNC(=O)c1cc(Nc2ncc(Cl)c(NC3CC3)n2)cs1 [Example 21] |  | 2.28[c] |  |
| Brc1cnc(Nc2ccsc2)nc1NC1CCC1 [Example 3] | 2.12[b] |  |  |
| Cc1ccc(Nc2ncc(Cl)c(NC3CC3)n2)s1 [Example 26, 5-Chloro-N^4-cyclopropyl-N^2-2-methylthiophen-5-yl-2,4-diamine] |  |  | logp [b] [3]: 2.09[b]; logp [c] [3]: 3.20[c];; logP (pH 2.3) [3]: 2.09 |
| COCCNC(=O)c1cc(Nc2ncc(Cl)c(NC3CC3)n2)cs1 [Example 23] | 1.38[b] | 2.01[c]; |  |
| COCC(C)NC(=O)c1cc(Nc2ncc(Cl)c(NC3CC3)n2)cs1 (stereo not shown) [Example 24] | 1.58[b] | 2.22 [c]; |  |
| CC(C)Nc1nc(Nc2ccsc2)ncc1Cl [Example 27] | 1.66[b] | 3.28[c]; |  |
| O=c1[nH]c(Nc2ccsc2)ncc1Cl [IX-1, 2-(Thiophen-3-ylamino)-5-chloropyrimidin-4(3H)-one] |  |  | chromatographic logP (physchem): 1.38 |
| Cc1ccc(NC(=O)OC(C)(C)C)s1 [2-(N-tert-Butoxycarbonylamino)-5-methylthiophene] |  |  | chromatographic logP (physchem): 2.89 |
| O=C(O)c1cc(Nc2ncc(Cl)c(NC3CC3)n2)cs1 [Example 37, 5-Chloro-N^4-cyclopropyl-N^2-2-hydroxycarbonylthiophen-4-yl-2,4-diamine] |  |  | logp [b] [3]: 1.30[b]; logp [c] [3]: 0.74[c];; logP (pH 2.3) [3]: 1.30 |
| CC(=O)c1ccc(Nc2ncc(Cl)c(NC3CC3)n2)s1 [Example 10, N^4-Cyclopropyl-N^2-2-acetylthiophen-5-yl-5-(chloro)pyrimidine-2,4-diamine] |  |  | chromatographic logP (physchem): 1.87 |
| C=CCN(C)C(=O)c1cc(Nc2ncc(Cl)c(NC3CC3)n2)cs1 [Example 22] | 1.89[b] | 2.65[c]; |  |
| CC1CC1Nc1nc(Nc2ccsc2)ncc1Cl (mixture of isomers) [Example 17] |  |  | logp [a] [1]: 1.97[a] |
| Clc1cnc(Nc2ccsc2)nc1NCC1CC1 [Example 32] | 2.33[b] | 3.31[c]; |  |
| Clc1cc(Nc2ncc(Cl)c(NC3CC3)n2)cs1 [Example 41] | 2.63[b] |  |  |
| CSc1ccc(Nc2ncc(Cl)c(NC3CC3)n2)s1 [Example 34] | 2.84[b] | 3.36[c]; |  |
